Reference: publication PMC11219833, “Design and radiosynthesis of class-IIa HDAC inhibitor with high molar activity via repositioning the ^18F-radiolabel” (Scientific Reports, 2024)

Key:
[1] = test system: endogenous class-IIa HDACs in HT-29 cells; assay: Whole-cell assay of endogenous class-IIa HDAC inhibition in HT-29 cells (Boc-Lys-TFA substrate); type: cell-based; conditions: Homo sapiens, class-IIa selective substrate Boc-Lys-TFA, ± SEM
Excerpt: (§1) The next step was to determine the specificity, selectivity and potency of NT376 to class-IIa HDACs against endogenous class-IIa HDACs in HT-29 cells using the class-distinguishing substrates similar to our previous work[23].
(§2) We utilized the well-established fluorogenic assay to screen NT376 against recombinant human HDAC isoforms and against endogenous HDACs in HT-29 cells. The class IIa HDAC fluorogenic assay functions in a two-step process: first, the class IIa HDAC removes the trifluoroacetate (TFA) from TFA-lysine substrate to generate free lysine which is recognized by trypsin and releases a fluorescent fluorophore (intact substrate is not recognized by trypsin) that can be detected using microplate reader. The IC50 was determined using nonlinear fit curves (GraphPad Prism) (% HDAC activity inhibition vs. compound concentration). […]
(§3) The cell-based HDAC inhibitor assays were performed in HT-29 cells (ATCC). […] The cells were then washed with HDAC Assay Buffer (RPMI 1640 media without phenol red, Gibco, containing 0.1% FBS), re-collected by centrifugation, resuspended in HDAC Assay Buffer, and counted. […] Fluorescent counts were read with a microplate reader at an excitation wavelength of 360 nm and emitted light was detected at 460 nm.

[2] = test system: endogenous class-I/IIb HDACs in HT-29 cells; assay: Whole-cell assay of endogenous class-I/IIb HDAC inhibition in HT-29 cells (Boc-Lys-Ac substrate); type: cell-based; conditions: Homo sapiens, class-I/IIb selective substrate Boc-Lys-Ac
Excerpt: as §1, §2, §3

recombinant human HDAC5 = target: T1, recombinant human HDAC5 (Homo sapiens, UniProt Q9UQL6); assay: HDAC isoform inhibition fluorogenic assay (BPS Bioscience kit); type: biochemical
T1 construct: purchased BPS Bioscience, Inc
T1 sequence (Q9UQL6 whole entry, canonical isoform): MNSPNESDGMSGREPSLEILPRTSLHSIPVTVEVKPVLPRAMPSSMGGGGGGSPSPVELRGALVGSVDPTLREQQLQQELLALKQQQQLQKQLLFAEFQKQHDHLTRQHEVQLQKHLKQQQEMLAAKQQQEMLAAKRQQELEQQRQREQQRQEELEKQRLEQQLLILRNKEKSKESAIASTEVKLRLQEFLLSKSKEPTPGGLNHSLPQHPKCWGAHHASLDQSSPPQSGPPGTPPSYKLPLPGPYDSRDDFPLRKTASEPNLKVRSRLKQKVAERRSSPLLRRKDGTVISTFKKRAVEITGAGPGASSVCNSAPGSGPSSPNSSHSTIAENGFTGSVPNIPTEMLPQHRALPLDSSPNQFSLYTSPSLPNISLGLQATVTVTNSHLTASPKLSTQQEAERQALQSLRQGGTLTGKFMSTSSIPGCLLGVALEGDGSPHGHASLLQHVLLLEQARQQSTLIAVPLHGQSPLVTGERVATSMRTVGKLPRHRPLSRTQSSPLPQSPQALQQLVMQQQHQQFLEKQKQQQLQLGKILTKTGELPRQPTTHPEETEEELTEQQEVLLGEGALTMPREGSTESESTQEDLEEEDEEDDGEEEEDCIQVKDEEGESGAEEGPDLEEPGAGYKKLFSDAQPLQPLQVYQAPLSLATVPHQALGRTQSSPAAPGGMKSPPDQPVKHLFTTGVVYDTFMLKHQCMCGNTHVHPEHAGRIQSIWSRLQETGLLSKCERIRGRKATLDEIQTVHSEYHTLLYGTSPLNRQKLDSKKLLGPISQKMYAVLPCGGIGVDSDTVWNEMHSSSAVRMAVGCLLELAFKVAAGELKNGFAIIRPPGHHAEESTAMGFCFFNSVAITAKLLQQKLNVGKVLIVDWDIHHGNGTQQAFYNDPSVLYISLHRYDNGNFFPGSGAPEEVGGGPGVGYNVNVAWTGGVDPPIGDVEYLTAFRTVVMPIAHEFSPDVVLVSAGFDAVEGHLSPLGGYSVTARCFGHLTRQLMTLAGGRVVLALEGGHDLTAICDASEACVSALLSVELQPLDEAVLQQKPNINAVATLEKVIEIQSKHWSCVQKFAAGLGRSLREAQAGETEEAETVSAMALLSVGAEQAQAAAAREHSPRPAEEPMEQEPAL
Excerpt: (§4) We utilized the well-established fluorogenic assay to screen NT376 against recombinant human HDAC isoforms and against endogenous HDACs in HT-29 cells. The class IIa HDAC fluorogenic assay functions in a two-step process: first, the class IIa HDAC removes the trifluoroacetate (TFA) from TFA-lysine substrate to generate free lysine which is recognized by trypsin and releases a fluorescent fluorophore (intact substrate is not recognized by trypsin) that can be detected using microplate reader. The IC50 was determined using nonlinear fit curves (GraphPad Prism) (% HDAC activity inhibition vs. compound concentration). The IC50 measurements were performed in triplicates and experiments were repeated twice with known HDAC inhibitors NT160 and SAHA used as positive and […] controls respectively.
(§5) Preparation of NT376: A 1.0 mM stock solution of NT376 was prepared in 100% DMSO. 11-dilutions of NT376 were then prepared in HDAC assay buffer with the DMSO adjusted to 2.5% final concentration in the assay medium.
(§6) NT376 was screened against recombinant human HDACs isoforms using the commercially available HDACs enzyme assay kits (BPS Bioscience, Inc.). The experiments were performed according to the manufacturer protocol.

recombinant human HDAC1 = target: T2, recombinant human HDAC1 (Homo sapiens, UniProt Q13547); assay: as above; type: biochemical; conditions: class-I
T2 construct: purchased BPS Bioscience, Inc
T2 sequence (Q13547 whole entry): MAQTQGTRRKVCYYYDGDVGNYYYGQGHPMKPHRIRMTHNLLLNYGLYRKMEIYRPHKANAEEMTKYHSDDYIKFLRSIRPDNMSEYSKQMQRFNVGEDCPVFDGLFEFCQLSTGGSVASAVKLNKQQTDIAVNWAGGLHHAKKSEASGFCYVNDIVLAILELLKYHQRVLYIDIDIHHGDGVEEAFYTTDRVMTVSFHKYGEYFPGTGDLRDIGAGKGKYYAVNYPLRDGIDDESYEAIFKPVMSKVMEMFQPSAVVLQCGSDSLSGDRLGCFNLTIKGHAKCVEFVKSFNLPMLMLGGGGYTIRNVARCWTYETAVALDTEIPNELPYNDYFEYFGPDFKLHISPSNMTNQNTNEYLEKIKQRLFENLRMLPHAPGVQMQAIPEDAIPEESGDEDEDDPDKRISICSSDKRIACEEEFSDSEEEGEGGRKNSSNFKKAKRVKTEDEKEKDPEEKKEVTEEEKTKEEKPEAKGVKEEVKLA
Excerpt: as §4, §5, §6

recombinant human HDAC11 = target: T3, recombinant human HDAC11 (Homo sapiens, UniProt Q96DB2); assay: as above; type: biochemical; conditions: class-IV
T3 construct: purchased BPS Bioscience, Inc
T3 sequence (Q96DB2 1-347): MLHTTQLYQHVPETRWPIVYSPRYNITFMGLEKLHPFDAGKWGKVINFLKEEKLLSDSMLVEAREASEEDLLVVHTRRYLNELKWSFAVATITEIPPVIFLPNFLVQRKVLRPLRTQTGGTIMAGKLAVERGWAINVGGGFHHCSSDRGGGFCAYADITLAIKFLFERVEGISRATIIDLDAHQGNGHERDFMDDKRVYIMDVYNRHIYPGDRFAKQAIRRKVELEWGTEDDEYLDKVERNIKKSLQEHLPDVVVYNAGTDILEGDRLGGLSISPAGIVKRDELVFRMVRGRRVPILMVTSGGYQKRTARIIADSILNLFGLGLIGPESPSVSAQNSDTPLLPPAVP
Excerpt: as §4, §5, §6

recombinant human HDAC6 = target: T4, recombinant human HDAC6 (Homo sapiens, UniProt Q9UBN7); assay: as above; type: biochemical; conditions: class-IIb
T4 construct: purchased BPS Bioscience, Inc
T4 sequence (Q9UBN7 1-1215): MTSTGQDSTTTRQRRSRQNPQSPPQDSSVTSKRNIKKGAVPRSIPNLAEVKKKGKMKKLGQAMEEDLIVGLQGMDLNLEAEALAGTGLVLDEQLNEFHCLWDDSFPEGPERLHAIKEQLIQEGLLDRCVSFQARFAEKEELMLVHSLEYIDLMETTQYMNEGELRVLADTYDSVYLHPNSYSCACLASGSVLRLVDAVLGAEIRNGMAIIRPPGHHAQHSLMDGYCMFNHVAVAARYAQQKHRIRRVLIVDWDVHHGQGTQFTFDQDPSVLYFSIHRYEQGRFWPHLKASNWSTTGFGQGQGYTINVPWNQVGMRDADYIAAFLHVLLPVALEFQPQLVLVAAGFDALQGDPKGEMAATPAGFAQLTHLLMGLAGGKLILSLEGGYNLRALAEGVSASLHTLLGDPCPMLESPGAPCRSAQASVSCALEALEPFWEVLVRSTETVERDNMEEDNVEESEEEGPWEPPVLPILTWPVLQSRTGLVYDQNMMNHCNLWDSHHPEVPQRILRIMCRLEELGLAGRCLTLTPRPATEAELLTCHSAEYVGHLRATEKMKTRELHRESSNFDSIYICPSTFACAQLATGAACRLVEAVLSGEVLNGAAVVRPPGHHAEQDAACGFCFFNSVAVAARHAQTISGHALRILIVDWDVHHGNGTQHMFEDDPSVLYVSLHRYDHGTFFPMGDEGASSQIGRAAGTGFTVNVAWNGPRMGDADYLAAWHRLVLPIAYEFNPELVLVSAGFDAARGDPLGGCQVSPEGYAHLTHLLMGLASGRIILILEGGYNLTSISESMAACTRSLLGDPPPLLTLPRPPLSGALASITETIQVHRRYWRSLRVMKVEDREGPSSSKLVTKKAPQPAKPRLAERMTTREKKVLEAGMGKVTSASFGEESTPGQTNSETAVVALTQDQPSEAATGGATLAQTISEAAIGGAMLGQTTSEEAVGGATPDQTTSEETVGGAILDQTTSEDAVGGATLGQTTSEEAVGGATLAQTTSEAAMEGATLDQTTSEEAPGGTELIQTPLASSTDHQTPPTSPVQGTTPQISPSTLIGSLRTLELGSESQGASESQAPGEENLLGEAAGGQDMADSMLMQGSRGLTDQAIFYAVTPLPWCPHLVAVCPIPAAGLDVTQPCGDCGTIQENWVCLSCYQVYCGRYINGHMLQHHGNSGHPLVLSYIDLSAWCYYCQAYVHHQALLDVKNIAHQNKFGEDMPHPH
Excerpt: as §4, §5, §6

recombinant human HDAC4 = target: T5, recombinant human HDAC4 (Homo sapiens, UniProt P56524); assay: as above; type: biochemical
T5 construct: purchased BPS Bioscience, Inc
T5 sequence (P56524 whole entry): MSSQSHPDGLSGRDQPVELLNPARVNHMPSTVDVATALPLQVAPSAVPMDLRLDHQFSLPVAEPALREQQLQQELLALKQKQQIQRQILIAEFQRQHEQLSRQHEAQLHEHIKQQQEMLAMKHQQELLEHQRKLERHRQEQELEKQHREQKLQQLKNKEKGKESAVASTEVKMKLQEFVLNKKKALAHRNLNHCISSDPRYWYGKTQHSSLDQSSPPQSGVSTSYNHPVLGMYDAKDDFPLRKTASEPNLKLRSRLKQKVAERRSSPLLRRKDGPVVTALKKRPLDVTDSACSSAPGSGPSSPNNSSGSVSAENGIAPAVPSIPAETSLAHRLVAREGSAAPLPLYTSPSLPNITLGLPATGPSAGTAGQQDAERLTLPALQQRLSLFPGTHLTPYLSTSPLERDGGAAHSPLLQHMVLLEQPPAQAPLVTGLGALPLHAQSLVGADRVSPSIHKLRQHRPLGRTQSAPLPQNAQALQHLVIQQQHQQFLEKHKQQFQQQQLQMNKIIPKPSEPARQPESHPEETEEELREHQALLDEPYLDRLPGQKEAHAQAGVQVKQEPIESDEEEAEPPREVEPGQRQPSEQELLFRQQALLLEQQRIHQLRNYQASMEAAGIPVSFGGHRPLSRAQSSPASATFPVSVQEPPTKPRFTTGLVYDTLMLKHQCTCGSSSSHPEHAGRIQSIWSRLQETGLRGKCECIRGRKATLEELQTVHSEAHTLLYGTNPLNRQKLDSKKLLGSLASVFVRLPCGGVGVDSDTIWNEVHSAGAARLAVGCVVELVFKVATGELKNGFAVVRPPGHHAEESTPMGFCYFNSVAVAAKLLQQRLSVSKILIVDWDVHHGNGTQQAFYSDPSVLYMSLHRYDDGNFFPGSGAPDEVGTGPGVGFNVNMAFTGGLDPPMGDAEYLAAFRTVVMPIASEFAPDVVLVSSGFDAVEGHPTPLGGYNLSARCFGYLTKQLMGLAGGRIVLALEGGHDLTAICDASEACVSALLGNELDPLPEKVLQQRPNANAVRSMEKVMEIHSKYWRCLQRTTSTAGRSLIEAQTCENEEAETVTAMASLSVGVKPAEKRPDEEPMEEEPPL
Excerpt: as §4, §5, §6

IC50 [1]: 32 ± 7.6 nM
IC50 [2]: > 4000 nM
IC50 (recombinant human HDAC5): 2.85 nM
IC50 (recombinant human HDAC1): 1480 nM
IC50 (recombinant human HDAC11): 4850 nM
IC50 (recombinant human HDAC6): 5030 nM
IC50 (recombinant human HDAC4): 1.26 nM
SMILES: C[C@H](CN(C)Cc1ccccc1)NC(=O)c1ccc(-c2noc(C(F)(F)F)n2)cc1F [NT376, (R)-N-(1-(benzyl(methyl)amino)propan-2-yl)-2-fluoro-4-(5-(trifluoromethyl)-1,2,4-oxadiazol-3-yl)benzamide]
